Assay results taken from patent publication US6509328B1, “Glutamate receptor antagonists” (Hoffmann-La Roche Inc., priority 1999, dated 2003).

Target: T1, rat mGlu2 receptor (Rattus norvegicus, UniProt P31421)
T1 construct: expressed in transfected cells; vector pcDNA I-amp (pcD1mGR2)
Assay: [3H]-LY354740 binding on mGlu2 transfected CHO cell membranes
Text: [^3H]-LY354740 Binding on mGlu2 Transfected CHO Cell Membranes
Transfection and Cell Culture
cDNA encoding the rat mGlu2 receptor protein in pBluescript II was obtained from Prof. S. Nakanishi (Kyoto, Japan), and subcloned into the eukaryotic expression vector pcDNA I-amp from Invitrogen (N V Leek, The Netherlands). This vector construct (pcD1mGR2) was co-transfected with a psvNeo plasmid encoding the gene for neomycin resistance, into CHO cells by a modified calcium phosphate method described by Chen & Okayama (1988). The cells were maintained in Dulbecco's Modified Eagle medium with reduced L-glutamine (2 mM final concentration) and 10% dialysed foetal calf serum from Gibco BRL (Basel, Switzerland). Selection was made in the presence of […] (1000 ug/ml final). Clones were identified by reverse transcription of 5 μg total RNA, followed by PCR using mGlu2 receptor specific primers 5′-[…]-3′ and 5′-[…]-3′ in 60 mM Tris HCl (pH 10), 15 mM (NH4)2SO4, 2 mM MgCl2, 25 units/ml Taq Polymerase with 30 cycles annealing at 60° C. for 1 min., extension at 72° C. for 30s, and 1 min. 95° C. denaturation.
Cells, cultured as above, were harvested and washed three times with cold PBS and frozen at −80° C. The pellet was resuspended in cold 20 mM HEPES-NaOH buffer containing 10 mM EDTA (pH 7.4), and homogenised with a polytron (Kinematica, AG, Littau, Switzerland) for 10s at 10,000 rpm. After centrifugation for 30 min. at 4° C., the pellet was washed once with the same buffer, and once with cold 20 mM HEPES-NaOH buffer containing 0.1 mM EDTA, (pH 7.4). Protein content was measured using the Pierce method (Socochim, Lausanne, Switzerland) using bovine serum albumin as standard.
After thawing, the membranes were resuspended in cold 50 mM Tris-HCl buffer containing 2 mM MgCl2 and 2 mM CaCl2, (pH 7) (binding buffer). The final concentration of the membranes in the assays was 25 μg protein/ml. Inhibition experiments were performed with membranes incubated with 10 nM [^3H]-LY354740 at room temperature, for 1 hour, in presence of various concentrations of the compound to be tested. Following the incubations, membranes were filtered onto Whatmann GF/C glass fiber filters and washed 5 times with cold binding buffer. Non specific binding was measured in the presence of 10 μM DCG IV (TOCRIS No. 0975). After transfer of the filters into plastic vials containing 10 ml of Ultima-gold scintillation fluid (Packard, Zürich, Switzerland), the radioactivity was measured by liquid scintillation in a Tri-Carb 2500 TR counter (Packard, Zürich, Switzerland).
The inhibition curves were fitted with a four parameter logistic equation giving IC50 values, and Hill coefficients.

T1 sequence (P31421 19-872): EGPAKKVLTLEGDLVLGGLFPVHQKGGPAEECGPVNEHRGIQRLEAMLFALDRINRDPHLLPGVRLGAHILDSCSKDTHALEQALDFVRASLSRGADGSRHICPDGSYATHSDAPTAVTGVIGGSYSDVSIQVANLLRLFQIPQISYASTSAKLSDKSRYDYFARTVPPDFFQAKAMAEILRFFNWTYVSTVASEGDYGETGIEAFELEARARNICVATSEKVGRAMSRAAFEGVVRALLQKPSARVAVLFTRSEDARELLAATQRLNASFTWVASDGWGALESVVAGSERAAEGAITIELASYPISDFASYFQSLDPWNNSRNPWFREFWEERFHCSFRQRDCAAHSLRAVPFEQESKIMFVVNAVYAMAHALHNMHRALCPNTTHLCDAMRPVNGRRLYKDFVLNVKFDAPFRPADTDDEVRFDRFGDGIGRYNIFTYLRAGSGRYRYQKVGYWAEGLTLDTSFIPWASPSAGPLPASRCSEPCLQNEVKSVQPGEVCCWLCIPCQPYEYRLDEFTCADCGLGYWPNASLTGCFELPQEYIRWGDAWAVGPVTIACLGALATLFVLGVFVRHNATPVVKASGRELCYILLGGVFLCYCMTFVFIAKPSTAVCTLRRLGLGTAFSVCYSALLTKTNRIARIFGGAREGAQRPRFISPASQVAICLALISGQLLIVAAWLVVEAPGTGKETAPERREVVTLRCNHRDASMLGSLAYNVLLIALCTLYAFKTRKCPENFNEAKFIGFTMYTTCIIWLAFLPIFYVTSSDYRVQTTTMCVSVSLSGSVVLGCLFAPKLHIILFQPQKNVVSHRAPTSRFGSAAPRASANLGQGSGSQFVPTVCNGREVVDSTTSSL

| Compound | Ki |
| --- | --- |
| O=C1CC(c2csc(-n3ccnc3)n2)=Nc2ccc(-c3ccccc3F)cc2N1 [Example 124, 8-(2-Fluoro-phenyl)-4-(2-imidazol-1-yl-thiazol-4-yl)-1,3-dihydro-benzo [b][1,4]diazepin-2-one] | 298 nM |
| O=C1CC(c2cccc(-c3nc(C(=O)O)cs3)c2)=Nc2ccc(-c3ccccc3F)cc2N1 [Example 160, 2-{3-[7-(2-Fluoro-phenyl)-4-oxo-4,5-dihydro-3H-benzo [b][1,4]diazepin-2-yl]-phenyl}-thiazole-4-carboxylic Acid] | 16 nM |
| N#Cc1ccsc1C1=CC(=O)Nc2cc(-c3ccc(F)cc3)ccc2N1 [Example 83, 2-[7-(4-Fluoro-phenyl)-4-oxo-4,5-dihydro-1H-benzo [b][1,4]diazepin-2-yl]-thiophene-3-carbonitrile] | 250 nM |
| O=C1CC(c2ccnc(-n3ccnc3)c2)=Nc2ccc(C#Cc3ccc(F)cc3)cc2N1 [Example 68, 8-(4-Fluoro-phenylethynyl)-4-(2-imidazol-1-yl-pyridin-4-yl)-1,3-dihydro-benzo[b][1,4]diazepin-2-one] | 4 nM |
| N#Cc1cc(C2=Nc3ccc(C#Cc4ccccc4)cc3NC(=O)C2)ccn1 [Example 98, 4-(4-Oxo-7-phenylethynyl-4,5-dihydro-3H-benzo [b][1,4]diazepin-2-yl)-pyridine-2-carbonitrile] | 39 nM |
| Cc1nnc(-c2cccc(C3=Nc4ccc(-c5ccc(F)cc5)cc4NC(=O)C3)c2)n1C [Example 166, 4-[3-(4,5-Dimethyl-4H-[1,2,4]triazol-3-yl)-phenyl]-8-(4-fluoro-phenyl)-1,3-dihydro-benzo[b][1,4]diazepin-2-one] | 108 nM |
| O=C1CC(c2cccc(-n3ccnn3)c2)=Nc2ccc(-c3ccc(F)cc3F)cc2N1 [Example 123, 8-(2,4-Difluoro-phenyl)-4-(3-[1,2,3]triazol-1-yl-phenyl)-1,3-dihydro-benzo [b][1,4]diazepin-2-one] | 10 nM |
| O=C1CC(c2cccc(-n3ccnn3)c2)=Nc2ccc(-c3cccc(F)c3F)cc2N1 [Example 129, 8-(2,3-Difluoro-phenyl)-4-(3-[1,2,3]triazol-1-yl-phenyl)-1,3-dihydro-benzo[b][1,4]diazepin-2-one] | 13 nM |
| O=C1CC(c2cccc(-n3cnnn3)c2)=Nc2ccc(C#Cc3ccc(F)cc3)cc2N1 [Example 87, 8-(4-Fluoro-phenylethynyl)-4-(3-tetrazol-1-yl-phenyl)-1,3-dihydro-benzo [b][1,4]diazepin-2-one] | 36 nM |
| O=C1CC(c2cccc(-c3nc(CO)cs3)c2)=Nc2ccc(-c3ccccc3F)cc2N1 [Example 157, 8-(2-Fluoro-phenyl)-4-[3-(4-hydroxymethyl-thiazol-2-yl)-phenyl]-1,3-dihydro-benzo[b][1,4]diazepin-2-one] | 16 nM |
| O=C1CC(c2cccc(-n3ccnn3)c2)=Nc2ccc(-c3ccccc3F)cc2N1 [Example 110, 8-(2-Fluoro-phenyl)-4-(3-[1,2,3]triazol-1-yl-phenyl)-1,3-dihydro-benzo [b][1,4]diazepin-2-one] | 8 nM |
| O=C1CC(c2cccc(Cl)c2)=Nc2ccc(C#Cc3ccccc3)cc2N1 [Example 5, 4-(3-Chloro-phenyl)-8-phenylethynyl-1,3-dihydro-benzo[b][1,4]diazepin-2-one] | 40 nM |
| N#Cc1cccc(C2=Nc3ccc(-c4ccc(F)cc4)cc3NC(=O)C2)c1 [Example 57, 3-[7-(4-Fluoro-phenyl)-4-oxo-4,5-dihydro-3H-benzo[b][1,4]diazepin-2-yl]-benzonitrile] | 55 nM |

Test system: not given
Assay: not given

| Compound | melting point |
| --- | --- |
| O=C1CC(c2csc(-n3ccnc3)n2)=Nc2ccc(-c3ccccc3F)cc2N1 [Example 124, 8-(2-Fluoro-phenyl)-4-(2-imidazol-1-yl-thiazol-4-yl)-1,3-dihydro-benzo [b][1,4]diazepin-2-one] | 194 to 197 °C |
| N#Cc1ccsc1C1=CC(=O)Nc2cc(-c3ccc(F)cc3)ccc2N1 [Example 83, 2-[7-(4-Fluoro-phenyl)-4-oxo-4,5-dihydro-1H-benzo [b][1,4]diazepin-2-yl]-thiophene-3-carbonitrile] | 239 to 240 °C |
| O=C1CC(c2ccnc(-n3ccnc3)c2)=Nc2ccc(C#Cc3ccc(F)cc3)cc2N1 [Example 68, 8-(4-Fluoro-phenylethynyl)-4-(2-imidazol-1-yl-pyridin-4-yl)-1,3-dihydro-benzo[b][1,4]diazepin-2-one] | 206 °C (dec.) |
| Cc1nnc(-c2cccc(C3=Nc4ccc(-c5ccc(F)cc5)cc4NC(=O)C3)c2)n1C [Example 166, 4-[3-(4,5-Dimethyl-4H-[1,2,4]triazol-3-yl)-phenyl]-8-(4-fluoro-phenyl)-1,3-dihydro-benzo[b][1,4]diazepin-2-one] | 238 to 240 °C (dec.) |
| O=C1CC(c2cccc(-n3ccnn3)c2)=Nc2ccc(C#Cc3ccc(F)cc3)cc2N1 [Example 115, 8-(4-Fluoro-phenylethynyl)-4-(3-[1,2,3]triazol-1-yl-phenyl)-1,3-dihydro-benzo[b][1,4]diazepin-2-one] | 246 to 248 °C |
| CN1CCN(C(=O)c2cccc(C3=Nc4ccc(C#Cc5ccccc5)cc4NC(=O)C3)c2)CC1 [Example 147, 4-[3-(4-Methyl-piperazine-1-carbonyl)-phenyl]-8-phenylethynyl-1,3-dihydro-benzo[b][1,4]diazepin-2-one] | 168 to 172 °C (dec.) |
| N#Cc1cccc(C2=Nc3ccc(C4=CCN(S(=O)(=O)c5ccccc5)CC4)cc3NC(=O)C2)c1 [Example 45, 3-[7-(1-Benzenesulfonyl-1,2,3,6-tetrahydro-pyridin-4-yl)-4-oxo-4,5-dihydro-3H-benzo [b][1,4]diazepin-2-yl]-benzonitrile] | 92 to 95 °C (dec.) |
| O=C1CC(c2cccc(-n3cnnc3)c2)=Nc2ccc(-c3ccccc3F)cc2N1 [Example 99, 8-(2-Fluoro-phenyl)-4-(3-[1,2,4]triazol-4-yl-phenyl)-1,3-dihydro-benzo [b][1,4]diazepin-2-one] | 198 °C |
| N#Cc1cccc(C2=Nc3ccc(C#Cc4ccccc4Cl)cc3NC(=O)C2)c1 [Example 4, 3-[7-(2-Chloro-phenylethynyl)-4-oxo-4,5-dihydro-3H-benzo[b][1,4]diazepin-2-yl]-benzonitrile] | 239 to 240 °C (dec.) |
| CCOC(=O)c1csc(-c2cccc(C3=Nc4ccc(-c5ccccc5F)cc4NC(=O)C3)c2)n1 [Example 154, 2-{3-[7-(2-Fluoro-phenyl)-4-oxo-4,5-dihydro-3H-benzo [b][1,4]diazepin-2-yl]-phenyl}-thiazole-4-carboxylic Acid Ethyl Ester] | 172 to 175 °C |
| Cc1cn(-c2cccc(C3=Nc4ccc(-c5ccc(F)cc5)cc4NC(=O)C3)c2)c(C)n1 [Example 89, 4-[3-(2,4-Dimethyl-imidazol-1-yl)-phenyl]-8-(4-fluoro-phenyl)-1,3-dihydro-benzo[b][1,4]diazepin-2-one] | 188 °C |
| N#Cc1cccc(C2=Nc3ccc(C4CC4)cc3NC(=O)C2)c1 [Example 111, 3-(7-Cyclopropyl-4-oxo-4,5-dihydro-3H-benzo [b][1,4]diazepin-2-yl)-benzonitrile] | 204 to 209 °C |
| N#Cc1cc(C2=Nc3ccc(C4CC4)cc3NC(=O)C2)ccn1 [Example 112, 4-(7-Cyclopropyl-4-oxo-4,5-dihydro-3H-benzo[b][1,4]diazepin-2-yl)-pyridine-2-carbonitrile] | 227 to 230 °C |
| O=C1CC(c2cccs2)=Nc2ccc(I)cc2N1 [Example 25, 8-Iodo-4-thiophen-2-yl-1,3-dihydro-benzo[b][1,4]diazepin-2-one] | > 260 °C |
| Cc1cn(-c2nc(C3=Nc4ccc(-c5ccc(F)cc5)cc4NC(=O)C3)cs2)cn1 [Example 107, 8-(4-Fluoro-phenyl)-4-[2-(4-methyl-imidazol-1-yl)-thiazol-4-yl]-1,3-dihydro-benzo[b][1,4]diazepin-2-one] | 229 °C |
| CC(C)(C)OC(=O)N1CC=C(C#Cc2ccc3c(c2)NC(=O)CC(c2cccc(C#N)c2)=N3)CC1 [Example 139, 4-[2-(3-Cyano-phenyl)-4-oxo-4,5-dihydro-3H-benzo [b][1,4]diazepin-7-ylethynyl]-3,6-dihydro-2H-pyridine-1-carboxylic acid tert.-butyl ester] | 239 °C |
| N#Cc1cccc(C2=Nc3ccc(-c4ccc(Cl)cc4)cc3NC(=O)C2)c1 [Example 15, 3-[7-(4-Chloro-phenyl)-4-oxo-4,5-dihydro-3H-benzo[b][1,4]diazepin-2-yl]-benzonitrile] | 244 to 250 °C (dec.) |
| N#Cc1cccc(C2=Nc3ccc(C#Cc4ccccn4)cc3NC(=O)C2)c1 [Example 26, 3-(4-Oxo-7-pyridin-2-ylethynyl-4,5-dihydro-3H-benzo[b][1,4]diazepin-2-yl)-benzonitrile] | 229 to 231 °C (dec.) |
| N#Cc1cccc(C2=Nc3ccc(-c4cccs4)cc3NC(=O)C2)c1 [Example 24, 3-(4-Oxo-7-thiophen-2-yl-4,5-dihydro-3H-benzo[b][1,4]diazepin-2-yl)-benzonitrile] | > 250 °C (dec.) |
| N#Cc1cccc(C2=Nc3ccc(-c4ccccn4)cc3NC(=O)C2)c1 [Example 28, 3-(4-Oxo-7-pyridin-2-yl-4,5-dihydro-3H-benzo [b][1,4]diazepin-2-yl)-benzonitrile] | 243 to 244 °C (dec.) |
